Key:
CCL2 = target: T1, CCL2 (Homo sapiens, UniProt P13500); experiment: isothermal titration calorimetry; format: binding
T1 construct: construct and preparation not described in the main text; monomer-dimer, tetramer with saturating GAG

CCL11 (Eotaxin-1) = target: T2, CCL11 (Eotaxin-1) (Homo sapiens, UniProt P51671); experiment: isothermal titration calorimetry; format: binding
T2 construct: mature wild-type CCL11; monomer mass about 8360 Da from m/z; monomer-dimer-tetramer mixture

T1 sequence (P13500 24-99): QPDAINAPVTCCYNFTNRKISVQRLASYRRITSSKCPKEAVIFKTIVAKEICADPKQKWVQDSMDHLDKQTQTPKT

Kd (CCL2): 7.98 ± 0.77 µM
Kd (CCL11 (Eotaxin-1)): 2.71 ± 0.284 µM
Compound: CO[C@H]1O[C@H](COS(=O)(=O)O)[C@@H](O[C@@H]2O[C@@H](C(=O)O)[C@@H](O[C@H]3O[C@H](COS(=O)(=O)O)[C@@H](O[C@@H]4O[C@H](C(=O)O)[C@@H](O[C@H]5O[C@H](COS(=O)(=O)O)[C@@H](O)[C@H](O)[C@H]5NS(=O)(=O)O)[C@H](O)[C@H]4O)[C@H](OS(=O)(=O)O)[C@H]3NS(=O)(=O)O)[C@H](O)[C@H]2OS(=O)(=O)O)[C@H](O)[C@H]1NS(=O)(=O)O [Arixtra]

Source: article PMC4030970, “Structural Evidence for the Tetrameric Assembly of Chemokine CCL11 and the Glycosaminoglycan Arixtra™” (Biomolecules, 2013)
